The source of these data is patent publication US9302991B2, “Arylamide derivatives as TTX-S blockers” (RaQualia Pharma Inc., priority 2010, dated 2016).

The target of test [1] is T1, human Nav1.3 channels (Homo sapiens, UniProt Q9NY46).
T1 construct: expressed in transfected cells; host or cells: HEK293
Briefly: FRET assay, human Nav1.3 (EFS on FDSS). In kind it is cell-based. The conditions noted are these: HEK293 cells expressing human Nav1.3, read-out: IC50 against Nav1.3. In a few lines: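 HEK293 cells expressing the channel, loaded with 10 microM CC2-DMPE then 15 microM DiSBAC2(3) plus 0.555 mM VABSC-1 in pH 7.4 HEPES buffer at room temperature. Membrane potential changes evoked by electrical field stimulation after compound addition; IC50 from 440 nm-normalized FRET ratios.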

Test [2] deals with T2, human Nav1.7 channels (Homo sapiens, UniProt Q15858).
T2 construct: expressed in transfected cells; host or cells: CHO
T2 sequence (Q15858 whole entry): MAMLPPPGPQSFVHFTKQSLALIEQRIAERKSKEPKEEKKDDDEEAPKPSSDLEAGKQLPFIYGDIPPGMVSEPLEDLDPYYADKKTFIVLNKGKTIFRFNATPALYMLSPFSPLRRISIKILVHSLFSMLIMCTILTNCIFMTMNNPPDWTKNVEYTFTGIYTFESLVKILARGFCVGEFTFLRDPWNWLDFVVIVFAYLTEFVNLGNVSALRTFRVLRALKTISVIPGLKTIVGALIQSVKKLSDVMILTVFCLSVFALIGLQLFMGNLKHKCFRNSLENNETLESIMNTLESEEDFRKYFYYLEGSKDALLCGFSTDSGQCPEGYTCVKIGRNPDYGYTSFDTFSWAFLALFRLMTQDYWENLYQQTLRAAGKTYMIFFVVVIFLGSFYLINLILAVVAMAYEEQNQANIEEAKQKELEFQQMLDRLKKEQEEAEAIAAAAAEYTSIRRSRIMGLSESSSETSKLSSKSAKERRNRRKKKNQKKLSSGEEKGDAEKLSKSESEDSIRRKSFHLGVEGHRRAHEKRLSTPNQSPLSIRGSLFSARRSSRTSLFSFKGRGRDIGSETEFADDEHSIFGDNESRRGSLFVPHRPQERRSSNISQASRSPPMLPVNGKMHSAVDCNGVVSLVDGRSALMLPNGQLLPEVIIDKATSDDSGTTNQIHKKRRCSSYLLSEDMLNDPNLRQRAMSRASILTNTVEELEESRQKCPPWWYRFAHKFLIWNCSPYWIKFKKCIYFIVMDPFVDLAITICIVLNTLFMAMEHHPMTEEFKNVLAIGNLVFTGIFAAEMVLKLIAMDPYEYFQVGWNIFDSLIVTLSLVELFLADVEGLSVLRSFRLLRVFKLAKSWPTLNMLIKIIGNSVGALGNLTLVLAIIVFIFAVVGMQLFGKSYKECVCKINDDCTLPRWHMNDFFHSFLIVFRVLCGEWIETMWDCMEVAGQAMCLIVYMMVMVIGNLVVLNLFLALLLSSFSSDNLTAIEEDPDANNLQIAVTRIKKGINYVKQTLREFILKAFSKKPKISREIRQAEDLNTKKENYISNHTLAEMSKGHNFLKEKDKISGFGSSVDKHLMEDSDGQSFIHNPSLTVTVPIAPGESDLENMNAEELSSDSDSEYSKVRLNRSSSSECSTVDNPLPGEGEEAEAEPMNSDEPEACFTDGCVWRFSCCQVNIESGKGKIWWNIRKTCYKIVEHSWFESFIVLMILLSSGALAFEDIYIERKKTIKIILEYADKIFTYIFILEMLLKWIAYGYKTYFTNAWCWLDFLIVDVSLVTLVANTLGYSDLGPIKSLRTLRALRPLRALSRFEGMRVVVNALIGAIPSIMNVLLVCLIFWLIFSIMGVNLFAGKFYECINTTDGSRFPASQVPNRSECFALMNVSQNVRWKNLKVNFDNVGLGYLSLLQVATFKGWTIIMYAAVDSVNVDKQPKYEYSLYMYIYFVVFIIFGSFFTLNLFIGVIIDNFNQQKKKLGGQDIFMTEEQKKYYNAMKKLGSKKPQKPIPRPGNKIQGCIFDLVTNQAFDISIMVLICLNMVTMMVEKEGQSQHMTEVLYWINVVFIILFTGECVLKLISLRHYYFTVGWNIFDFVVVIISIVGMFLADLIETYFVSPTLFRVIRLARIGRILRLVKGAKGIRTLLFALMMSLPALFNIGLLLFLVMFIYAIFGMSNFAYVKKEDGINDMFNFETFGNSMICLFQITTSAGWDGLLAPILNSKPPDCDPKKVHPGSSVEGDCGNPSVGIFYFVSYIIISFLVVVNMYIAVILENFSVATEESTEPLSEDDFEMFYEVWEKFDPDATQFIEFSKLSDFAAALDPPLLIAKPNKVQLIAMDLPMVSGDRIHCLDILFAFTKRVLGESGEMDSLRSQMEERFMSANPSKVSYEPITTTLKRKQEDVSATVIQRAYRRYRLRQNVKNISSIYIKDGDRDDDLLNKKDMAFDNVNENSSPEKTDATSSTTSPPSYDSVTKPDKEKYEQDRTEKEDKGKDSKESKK
Description: FRET assay, human Nav1.7 (EFS on FDSS). Format: cell-based. Conditions: CHO cells expressing human Nav1.7, read-out: IC50 against Nav1.7. The method in brief: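 CHO cells stably expressing the channel, loaded with CC2-DMPE (10 µM) then DiSBAC2(3) (15 µM) plus VABSC-1, in HEPES-buffered saline pH 7.4 at room temperature. Electrical field stimulation on FDSS; FRET ratio at 440 nm fitted for IC50.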

Where only a bound is given, the exact number is not on record here.

T1 sequence (Q9NY46 whole entry): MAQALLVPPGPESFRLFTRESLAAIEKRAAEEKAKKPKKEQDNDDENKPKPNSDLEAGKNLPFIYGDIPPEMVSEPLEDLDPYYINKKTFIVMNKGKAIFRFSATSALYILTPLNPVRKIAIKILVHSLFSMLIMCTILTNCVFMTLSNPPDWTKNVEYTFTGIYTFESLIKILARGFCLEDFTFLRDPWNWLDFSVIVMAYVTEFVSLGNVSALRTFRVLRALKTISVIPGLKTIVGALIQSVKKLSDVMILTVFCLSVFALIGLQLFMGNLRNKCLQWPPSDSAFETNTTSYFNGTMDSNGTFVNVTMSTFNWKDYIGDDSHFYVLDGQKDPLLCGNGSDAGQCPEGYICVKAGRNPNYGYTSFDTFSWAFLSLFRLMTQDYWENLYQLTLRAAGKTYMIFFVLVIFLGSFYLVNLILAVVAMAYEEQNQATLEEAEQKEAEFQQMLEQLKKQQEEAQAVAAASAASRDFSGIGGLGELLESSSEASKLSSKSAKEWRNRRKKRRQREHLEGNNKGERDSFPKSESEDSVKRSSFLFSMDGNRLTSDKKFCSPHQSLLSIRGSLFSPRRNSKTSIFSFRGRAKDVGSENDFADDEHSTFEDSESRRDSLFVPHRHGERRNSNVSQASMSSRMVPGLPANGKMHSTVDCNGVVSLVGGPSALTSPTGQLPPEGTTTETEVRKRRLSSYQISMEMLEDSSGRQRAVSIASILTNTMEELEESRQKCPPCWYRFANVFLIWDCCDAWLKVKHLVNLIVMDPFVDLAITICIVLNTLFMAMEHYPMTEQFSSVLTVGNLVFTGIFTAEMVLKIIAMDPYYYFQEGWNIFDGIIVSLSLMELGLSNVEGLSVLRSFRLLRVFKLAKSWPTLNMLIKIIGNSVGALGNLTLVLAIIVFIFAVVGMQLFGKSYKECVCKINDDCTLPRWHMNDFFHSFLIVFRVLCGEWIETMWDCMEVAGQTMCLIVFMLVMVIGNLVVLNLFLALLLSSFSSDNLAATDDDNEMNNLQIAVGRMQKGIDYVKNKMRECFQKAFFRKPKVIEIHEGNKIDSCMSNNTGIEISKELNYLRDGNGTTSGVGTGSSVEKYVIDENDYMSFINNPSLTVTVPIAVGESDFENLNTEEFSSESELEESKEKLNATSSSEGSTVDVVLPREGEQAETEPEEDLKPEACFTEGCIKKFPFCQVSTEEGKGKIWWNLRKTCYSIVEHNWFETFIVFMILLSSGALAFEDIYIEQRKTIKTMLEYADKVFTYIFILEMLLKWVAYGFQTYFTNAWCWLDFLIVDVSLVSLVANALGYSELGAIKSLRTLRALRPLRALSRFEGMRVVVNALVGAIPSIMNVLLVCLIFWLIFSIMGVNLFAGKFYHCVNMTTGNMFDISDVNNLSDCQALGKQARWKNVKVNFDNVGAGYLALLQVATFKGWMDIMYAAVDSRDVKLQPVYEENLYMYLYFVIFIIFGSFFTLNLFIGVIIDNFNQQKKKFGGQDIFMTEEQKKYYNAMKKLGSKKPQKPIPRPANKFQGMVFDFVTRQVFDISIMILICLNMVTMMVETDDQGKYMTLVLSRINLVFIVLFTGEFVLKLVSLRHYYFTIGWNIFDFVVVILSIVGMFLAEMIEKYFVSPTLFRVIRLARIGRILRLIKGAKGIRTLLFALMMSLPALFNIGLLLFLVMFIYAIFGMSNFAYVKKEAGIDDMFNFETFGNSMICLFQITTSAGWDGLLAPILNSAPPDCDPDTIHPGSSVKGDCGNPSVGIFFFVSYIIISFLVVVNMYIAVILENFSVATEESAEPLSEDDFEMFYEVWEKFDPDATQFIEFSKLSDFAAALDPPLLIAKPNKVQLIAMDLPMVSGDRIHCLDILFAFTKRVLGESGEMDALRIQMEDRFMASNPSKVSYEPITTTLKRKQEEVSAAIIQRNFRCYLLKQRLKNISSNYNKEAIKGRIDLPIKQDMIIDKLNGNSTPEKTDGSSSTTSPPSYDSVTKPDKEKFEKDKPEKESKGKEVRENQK

Turning to `Cc1cc(C(=O)NC(C)c2cnc(OCC(F)F)c(C)c2)cc(NC(=O)C(C)C)n1` (single isomer, unassigned) [Example 557, N-(1-(6-(2,2-difluoroethoxy)-5-methylpyridin-3-yl)ethyl)-2-isobutyramido-6-methylisonicotinamide], the IC50 in test [1] and in test [2] was < 1000 nM each time.
For the compound `Cc1cc(CNC(=O)c2ccnc(NC(=O)C(C)C)c2)cnc1OCC(F)(F)C(F)F` [Example 941, 2-isobutyramido-N-((5-methyl-6-(2,2,3,3-tetrafluoropropoxy)pyridin-3-yl)methyl)isonicotinamide], the IC50 in test [1] and in test [2] was < 1000 nM each time.
With `CCC(=O)Nc1cc(C(=O)NC(C)c2cnc(OCC(F)(F)C(F)F)c(C)c2)ccn1` (single isomer, unassigned) [Example 925, N-(1-(5-methyl-6-(2,2,3,3-tetrafluoropropoxy)pyridin-3-yl)ethyl)-2-propionamidoisonicotinamide], the concentration for half-maximal inhibition (IC50) in test [1] and in test [2] was < 1000 nM throughout.
`Cc1cc(C(C)NC(=O)c2ccnc(NC(=O)C3CC3)n2)cnc1OCC(F)(F)C(F)F` (single isomer, unassigned) [Example 906, 2-(cyclopropanecarboxamido)-N-(1-(5-methyl-6-(2,2,3,3-tetrafluoropropoxy)pyridin-3-yl)ethyl)pyrimidine-4-carboxamide]: the half-maximal inhibitory concentration (IC50) in test [1] and in test [2] was < 1000 nM throughout.
Consider `CCC(=O)Nc1cc(C(=O)NC(C)c2cnc(OCC(F)(F)F)c(C)c2)cc(C)n1` (single isomer, unassigned) [Example 132, 2-methyl-N-(1-(5-methyl-6-(2,2,2-trifluoroethoxy)pyridin-3-yl)ethyl)-6-propionamidoisonicotinamide], for which the IC50 in test [1] and in test [2] was < 1000 nM each time.
Regarding `CC(=O)Nc1cc(C(=O)NCc2ccc(OCC(F)(F)F)c(C)c2)ccn1` [Example 788, 2-acetamido-N-(3-methyl-4-(2,2,2-trifluoroethoxy)benzyl)isonicotinamide], the IC50 in test [1] and in test [2] was < 1000 nM each time.
Regarding `CCC(=O)Nc1nccc(C(=O)NC(C)c2cnc(OCC(F)(F)F)c(C)c2)n1` (single isomer, unassigned) [Example 223, N-(1-(5-methyl-6-(2,2,2-trifluoroethoxy)pyridin-3-yl)ethyl)-2-propionamidopyrimidine-4-carboxamide], the IC50 in test [1] and in test [2] was < 1000 nM each time.
On to `CC(C)C(=O)Nc1cc(C(=O)NCc2cccc(C(F)(F)F)c2)ccn1` [Example 533, 2-isobutyramido-N-(3-(trifluoromethyl)benzyl)isonicotinamide], for which the IC50 in test [1] and in test [2] was < 1000 nM in each case.
As for `CCC(=O)Nc1cc(C(=O)NCc2ccc(OCC(F)(F)C(F)(F)F)nc2)cc(C)n1` [Example 643, 2-methyl-N-((6-(2,2,3,3,3-pentafluoropropoxy)pyridin-3-yl)methyl)-6-propionamidoisonicotinamide], the IC50 in test [1] and in test [2] was < 1000 nM throughout.
For the compound `Cc1cc(C(=O)NC(C)c2cnc(OCC(F)(F)F)c(C)c2)cc(NC(=O)CC2CC2)n1` (single isomer, unassigned) [Example 953, 2-(2-cyclopropylacetamido)-6-methyl-N-(1-(5-methyl-6-(2,2,2-trifluoroethoxy)pyridin-3-yl)ethyl)isonicotinamide], the IC50 in test [1] and in test [2] was < 1000 nM in each case.
Consider `CCC(=O)Nc1cc(C(=O)NCc2cnc(OCC(F)(F)C(F)F)c(C)c2)ccn1` [Example 940, N-((5-methyl-6-(2,2,3,3-tetrafluoropropoxy)pyridin-3-yl)methyl)-2-propionamidoisonicotinamide], for which the 50% inhibitory concentration (IC50) in test [1] and in test [2] was < 1000 nM throughout.
On to `CCC(=O)Nc1cc(C(=O)NC(C)c2ccc(OCC(F)(F)F)cc2)cc(C)n1` (single isomer, unassigned) [Example 136, 2-methyl-6-propionamido-N-(1-(4-(2,2,2-trifluoroethoxy)phenyl)ethyl)isonicotinamide], for which the concentration for half-maximal inhibition (IC50) in test [1] and in test [2] was < 1000 nM in each case.
`Cc1cc(CNC(=O)c2ccnc(NC(=O)C3CC3)n2)cnc1OCC(F)(F)F` [Example 564, 2-(cyclopropanecarboxamido)-N-((5-methyl-6-(2,2,2-trifluoroethoxy)pyridin-3-yl)methyl)pyrimidine-4-carboxamide]: the IC50 in test [1] and in test [2] was < 1000 nM in each case.
Take `Cc1cc(C(=O)NCc2cnc(OCC(F)(F)F)c(C)c2)cc(NC(=O)C2CC2)n1` [Example 824, 2-(cyclopropanecarboxamido)-6-methyl-N-((5-methyl-6-(2,2,2-trifluoroethoxy)pyridin-3-yl)methyl)isonicotinamide]: the concentration for half-maximal inhibition (IC50) in test [1] and in test [2] was < 1000 nM in each case.
Consider `Cc1cc(CNC(=O)c2ccnc(NC(=O)C(C)C)c2)ccc1OC(F)(F)F` [Example 807, 2-isobutyramido-N-(3-methyl-4-(trifluoromethoxy)benzyl)isonicotinamide], for which the 50% inhibitory concentration (IC50) in test [1] and in test [2] was < 1000 nM in each case.
For the compound `CCC(=O)Nc1nc(C)cc(C(=O)NC(C)c2cnc(OCC(F)(F)F)c(C)c2)n1` (single isomer, unassigned) [Example 227, 6-methyl-N-(1-(5-methyl-6-(2,2,2-trifluoroethoxy)pyridin-3-yl)ethyl)-2-propionamidopyrimidine-4-carboxamide], the half-inhibitory concentration (IC50) in test [1] and in test [2] was < 1000 nM in each case.
In the case of `Cc1cc(C(=O)NCc2cccc(C(F)(F)F)c2)cc(NC(=O)C(C)C)n1` [Example 534, 2-isobutyramido-6-methyl-N-(3-(trifluoromethyl)benzyl)isonicotinamide], the IC50 in test [1] and in test [2] was < 1000 nM each time.
Turning to `Cc1cc(CNC(=O)c2ccnc(NC(=O)C(C)C)c2)ccc1OCC(F)(F)F` [Example 791, 2-isobutyramido-N-(3-methyl-4-(2,2,2-trifluoroethoxy)benzyl)isonicotinamide], the 50% inhibitory concentration (IC50) in test [1] and in test [2] was < 1000 nM throughout.
Consider `COc1nc(OCC(F)(F)F)ccc1CNC(=O)c1ccnc(NC(C)=O)c1` [Example 148, 2-acetamido-N-((2-methoxy-6-(2,2,2-trifluoroethoxy)pyridin-3-yl)methyl)isonicotinamide], for which the IC50 in test [1] and in test [2] was < 1000 nM each time.
In the case of `CC(=O)Nc1cc(C(=O)NCc2cccc(OC(F)(F)F)c2)cc(C)n1` [Example 525, 2-acetamido-6-methyl-N-(3-(trifluoromethoxy)benzyl)isonicotinamide], the IC50 in test [1] and in test [2] was < 1000 nM throughout.
Turning to `Cc1cc(C(C)NC(=O)c2ccnc(NC(=O)C3CC3)c2)cnc1OCC(F)(F)F` (single isomer, unassigned) [Example 89, 2-(cyclopropanecarboxamido)-N-(1-(5-methyl-6-(2,2,2-trifluoroethoxy)pyridin-3-yl)ethyl)isonicotinamide], the half-inhibitory concentration (IC50) in test [1] and in test [2] was < 1000 nM throughout.
As for `CCC(=O)Nc1cc(C(=O)NCc2cnc(OCC(F)F)c(CC)c2)ccn1` [Example 930, N-((6-(2,2-difluoroethoxy)-5-ethylpyridin-3-yl)methyl)-2-propionamidoisonicotinamide], the IC50 in test [1] and in test [2] was < 1000 nM each time.
For `Cc1cc(CNC(=O)c2ccnc(NC(=O)C3CC3)c2)ccc1OCC(F)(F)F` [Example 790, 2-(cyclopropanecarboxamido)-N-(3-methyl-4-(2,2,2-trifluoroethoxy)benzyl)isonicotinamide], the IC50 in test [1] and in test [2] was < 1000 nM in each case.
On to `Cc1cc(CNC(=O)c2ccnc(NC(=O)C3CC3)c2)ccc1OC(F)(F)F` [Example 806, 2-(cyclopropanecarboxamido)-N-(3-methyl-4-(trifluoromethoxy)benzyl)isonicotinamide], for which the half-maximal inhibitory concentration (IC50) in test [1] and in test [2] was < 1000 nM each time.
